From paper PMC6760275, “Comparison of Zebrafish Larvae and hiPSC Cardiomyocytes for Predicting Drug-Induced Cardiotoxicity in Humans” (Toxicological Sciences, 2019)
“Also recorded” adds a separate entry of the source. Read-outs that look alike come from different tables or passages of the source.

Assays:
Pluricyte hiPSC-CMs = experiment: hiPSC-CM calcium transient FLIPR assay; details: 10 μM; for detection as cardiotoxic in hiPSC-CMs (hiPSC-CM positive): 0.1% DMSO, any feature significant at any time point (5, 30, 90 min); for time point of detection in hiPSC-CMs: T1 5 min, T2 30 min, T3 90 min after compound addition
Experimental: hiPSC-CMs beat spontaneously under culture conditions and the beating pattern can be addressed by Ca^2+ dyes reporting the intracellular Ca^2+ concentration that is then measured by the fluorometric imaging plate reader (FLIPR).
This standard protocol was changed at 2 steps: hiPSC-CMs were not spun after thawing and the final concentration was 15 000 instead of 10 000 cells/well.
Twenty microliters of Ca-6 dye solution was added to each well of the assay plate and the assay plate was incubated for 2 h at 37°C, 5% CO2 in the dark. […] After baseline measurement, compounds were added and the fluorescence signal was measured 5, 30, and 90 min after compound treatment. Fifteen microliters of compound dilution was transferred from a compound source plate (40 μM, 0.4% DMSO) to the assay plate (already containing 25 μl cells and 20 μl Ca-6 dye) using FLIPR. The final compound concentration was 10 μM and 0.1% DMSO. Between each measurement the plate was returned to the same incubator. Five extracted features were quantified: beating frequency/beats per minute (bpm), amplitude (ampl), area under the curve (auc), peak width (pkw), and peak width at 10% amplitude (ppkw) are measures informing about the depolarization and repolarization kinetics. […] Each compound was assessed as triplicate at 3 time points after incubation (T1: 5 min, T2: 30 min, T3: 90 min). A measurement was taken prior to compound addition (baseline, not shown). As there was little variability in the baseline measurement, it was not necessary to normalize against baseline. An average of the data of each feature for each time point was fed into the statistical model to determine significant effects.
The LMMs include random effects accounting for the different sources of variation from the experimental design.

[1] = cited from earlier work; for cardiovascular clinical adverse effects: parent drug and/or metabolites, ref Zhang et al., 2012; for market withdrawal due to cardiovascular adverse effects: ref Onakpoya et al., 2016, Siramshetty et al.
zebrafish larvae = experiment: ZeCardio cardiotoxicity screen in zebrafish larvae (heart and blood flow imaging)
Experimental: Zebrafish (Danio rerio) were mated, staged, and raised by standard methods ([Westerfield, 2000]). The library screen was performed on double transgenic larvae for Tg[cmlc2: GFP] ([Huang et al., 2003]) and Tg[gata1: DsRed] ([Traver et al., 2003]). Tg[cmlc2: GFP] expresses green fluorescent protein (GFP) in cardiomyocytes and Tg[gata1: DsRed] expresses DsRed fluorescent protein in a subset of erythrocytes.
Determination of NOEC was achieved through an Acute Toxicity test performed on AB wildtype larvae from 3 to 96 hpf, as previously described ([Cornet et al., 2017]) (see Supplementary Table 1 for NOEC data for each compound). For the cardiotoxic drug screening, double transgenic zebrafish larvae for Tg[cmlc2: GFP] and Tg[gata1: DsRed] were collected and raised in Embryo Medium (E3/60× Stock: 34.4 g NaCl, 1.52 g KCl, 5.8 g CaCl2·2H2O, 9.8 g MgSO4·7H2O, add 18 MOhm double distilled water up to 2000 ml; pH: 7.2) at 28.5°C in a 12 h light/12 h dark cycle. From 24 hpf onward, larvae were incubated with N-PhenylThioUrea (PTU) (Sigma-Aldrich, No. P7629) 0.2 mM to reduce pigmentation. Embryo medium was changed every day until 5 dpf, when double positive transgenic larvae were selected. […] Larvae were immersed in E3 with PTU 0.2 mM and Tricaine methanesulfonate (Sigma-Aldrich, No. E10521) at […] working concentration and distributed in 96-well plates in 100 µl per well. Then, 100 µl of compound solution was added at double NOEC concentration to reach the working concentration per compound: NOEC, DMSO 1%, and the final volume of 200 µl per larva per well. Negative control larvae were incubated in 200 µl 1% DMSO. Embryos were allowed to incubate in the compound solution for 4 h before. The developmental stage selected for analysis (5 dpf) was chosen because heart electrophysiological maturation and heart rhythm are stabilized from 96 hpf ([Tessadori et al., 2012]). One hundred and twenty hours post fertilization constitutes the latest stage to perform analysis after heart maturation and with conformation to ethical guidelines. Finally, the drug incubation time of 4 h was selected according to a previously established experimental set up ([Cornet et al., 2017]). Twelve embryos (1 embryo/well) were imaged for each compound, and the screening of the whole library was distributed over 15 experimental days. On each experimental day, 8 molecules were imaged: 7 drugs and the negative control 1% DMSO, to allow intraexperimental comparison.
The hardware conforming the screening platform allows zebrafish larvae sampling from multi-well plates to allow their position and automatic orientation in a glass capillary under a microscope to perform high-throughput imaging acquisition. It integrates 2 commercially available systems. First, an integrated VAST system (Union Biometrica) ([Pardo-Martin et al., 2010]), which consists of 2 complementary devices: (1) LP sampler, an automated fluid system capable of aspirating small to medium sized particles from multi-well plates and delivering them intact to the VAST BioImager, and (2) VAST BioImager, an automated fluid system, which positions zebrafish larva in a glass capillary. Once introduced in the glass capillary, the larva is recognized by an integrated imaging system and rotated to the desired angle for external imaging. Second, a Leica DM6B upright widefield microscope with a motorized Z-stage and Leica DFC9000 GTC (4.2 megapixel) CMOS camera particularly suited for high-speed fluorescent imaging applications achieves the fluorescent time-lapse imaging. The 2 systems, VAST and Leica microscope, communicate to coordinate the tasks of sampling, positioning, and imaging. To control the microscope, the LASX software (Leica) was used. To focus fluorescent structures in z-direction, the Autofocus function in LASX was used.

AB wildtype larvae = experiment: Acute Toxicity test for NOEC determination in AB wildtype zebrafish larvae, 3 to 96 hpf; format: in vivo, Danio rerio; details: higher concentration than the working concentration
Experimental: Determination of NOEC was achieved through an Acute Toxicity test performed on AB wildtype larvae from 3 to 96 hpf, as previously described ([Cornet et al., 2017]) (see Supplementary Table 1 for NOEC data for each compound). […] Larvae were immersed in E3 with PTU 0.2 mM and Tricaine methanesulfonate (Sigma-Aldrich, No. E10521) at 168 mg/ml working concentration and distributed in 96-well plates in 100 µl per well. Then, 100 µl of compound solution was added at double NOEC concentration to reach the working concentration per compound: NOEC, DMSO 1%, and the final volume of 200 µl per larva per well. Negative control larvae were incubated in 200 µl 1% DMSO. Embryos were allowed to incubate in the compound solution for 4 h before. […] Twelve embryos (1 embryo/well) were imaged for each compound, and the screening of the whole library was distributed over 15 experimental days. On each experimental day, 8 molecules were imaged: 7 drugs and the negative control 1% DMSO, to allow intraexperimental comparison.

hERG = tested on: hERG; set-up: method as in Guo et al., 2007; Shi et al., 2015; details: human patients and rat cardiomyocytes; ref Guo et al., 2007; Shi et al., 2015; cited from earlier work
[2] = 5 dpf larvae, 4 h incubation at NOEC, 1% DMSO, positive if any numerical feature significant or flag incidence above 30%

COc1ccc(CCN2CCC(Nc3nc4ccccc4n3Cc3ccc(F)cc3)CC2)cc1 [Astemizole]
detection as cardiotoxic in hiPSC-CMs (hiPSC-CM positive) (Pluricyte hiPSC-CMs): TP molecules for both models
cardiovascular clinical adverse effects ([1]; humans): promote cardiovascular clinical adverse effects through both the parent drug and metabolites
market withdrawal due to cardiovascular adverse effects ([1]; humans): withdrawn from the market due to cardiotoxicity concerns
Bigeminy (zebrafish larvae; in vivo): Bigeminy

CC(C)COCC(CN(Cc1ccccc1)c1ccccc1)N1CCCC1 (stereo not drawn) [Bepridil]
market withdrawal due to cardiovascular adverse effects ([1]; humans): withdrawn from the market
detection as cardiotoxic in zebrafish (zebrafish positive) (zebrafish larvae; in vivo): detection

CC(C)C[C@H]1C(=O)N2CCC[C@H]2[C@]2(O)O[C@](NC(=O)[C@@H]3C=C4c5cccc6[nH]c(Br)c(c56)C[C@H]4N(C)C3)(C(C)C)C(=O)N12 [Bromocriptine]
time point of detection in hiPSC-CMs (Pluricyte hiPSC-CMs): detected only at T3; also recorded: only detected as cardiotoxic through the late assessment
market withdrawal due to cardiovascular adverse effects ([1]; humans): withdrawn from the market
detection in zebrafish due to features other than ventricular BPM (zebrafish larvae; 5 dpf larvae, 4 h incubation at NOEC): detected for effects in features other than BPM; also recorded: enabled the detection
irregular beating of the heart (arrhythmia) (zebrafish larvae; 5 dpf larvae, 4 h incubation at NOEC, representative example): arrhythmia

Cc1ccc(-c2cc(C(F)(F)F)nn2-c2ccc(S(N)(=O)=O)cc2)cc1 [Celecoxib]
detection as cardiotoxic in hiPSC-CMs (hiPSC-CM positive) (Pluricyte hiPSC-CMs): failed to detect; also recorded: did not even detect
market withdrawal due to cardiovascular adverse effects ([1]; humans): withdrawn from the market due to cardiotoxicity concerns
detection as cardiotoxic in zebrafish (zebrafish positive) (zebrafish larvae; in vivo): could detect all

COc1cc(N)c(Cl)cc1C(=O)NC1CCN(CCCOc2ccc(F)cc2)CC1OC (stereo not drawn) [Cisapride]
market withdrawal due to cardiovascular adverse effects ([1]; humans): withdrawn from the market due to cardiotoxicity concerns
Bigeminy (zebrafish larvae; in vivo): Bigeminy
detection as cardiotoxic in zebrafish (zebrafish positive) (zebrafish larvae; in vivo): could detect all

CN1CCN(C2=Nc3cc(Cl)ccc3Nc3ccccc32)CC1 [Clozapine]
market withdrawal due to cardiovascular adverse effects ([1]; humans): withdrawn from the market

CCN[C@@H](C)Cc1cccc(C(F)(F)F)c1 [Dexfenfluramine]
detection as cardiotoxic in hiPSC-CMs (hiPSC-CM positive) (Pluricyte hiPSC-CMs): failed to detect
market withdrawal due to cardiovascular adverse effects ([1]; humans): withdrawn from the market due to cardiotoxicity concerns
detection as cardiotoxic in zebrafish (zebrafish positive) (zebrafish larvae; [2]): could detect all

CN(CCOc1ccc(NS(C)(=O)=O)cc1)CCc1ccc(NS(C)(=O)=O)cc1 [Dofetilide]
market withdrawal due to cardiovascular adverse effects ([1]; humans): withdrawn from the market
detection as cardiotoxic in zebrafish (zebrafish positive) (zebrafish larvae; in vivo): detection

O=C(O[C@@H]1C[C@@H]2C[C@H]3C[C@H](C1)N2CC3=O)c1c[nH]c2ccccc12 [Dolasetron]
detection as cardiotoxic in hiPSC-CMs (hiPSC-CM positive) (Pluricyte hiPSC-CMs): failed to detect
detection as cardiotoxic in zebrafish (zebrafish positive) (zebrafish larvae; in vivo): could detect all

COc1cccc2c1C(=O)c1c(O)c3c(c(O)c1C2=O)C[C@@](O)(C(=O)CO)C[C@@H]3O[C@H]1C[C@H](N)[C@H](O)[C@H](C)O1 [Doxorubicin]
cardiotoxicity in humans ([1]; ref Raj et al., 2014): promotes both acute and chronic cardiotoxicity in humans

O=C(CCCN1CC=C(n2c(=O)[nH]c3ccccc32)CC1)c1ccc(F)cc1 [Droperidol]
market withdrawal due to cardiovascular adverse effects ([1]; humans): withdrawn from the market

CCCCCCCN(CC)CCCC(O)c1ccc(NS(C)(=O)=O)cc1 (stereo not drawn) [Ibutilide]
cardiotoxicity in humans ([1]; ref Stambler et al., 1997): can induce or worsen ventricular arrhythmias with fatal consequences

CC(C)NCC(O)c1cc(O)cc(O)c1 (stereo not drawn) [Metaproterenol]
market withdrawal due to cardiovascular adverse effects ([1]; humans): withdrawn from the market due to cardiotoxicity concerns
detection as cardiotoxic in zebrafish (zebrafish positive) (zebrafish larvae; in vivo): could detect all

COCCc1ccc(OCC(O)CNC(C)C)cc1 (stereo not drawn) [Metoprolol]
irregular beating of the heart (arrhythmia) (zebrafish larvae; in vivo): arrhythmia

CCCN1C[C@H](CSC)C[C@@H]2c3cccc4[nH]cc(c34)C[C@H]21 [Pergolide]
detection as cardiotoxic in hiPSC-CMs (hiPSC-CM positive) (Pluricyte hiPSC-CMs): failed to detect; also recorded: neither model detected
clinical adverse effect leading to withdrawal ([1]; humans, no reference given): valvulopathies
market withdrawal due to cardiovascular adverse effects ([1]; humans): withdrawn from the market

CC(Cc1ccccc1)NCCC(c1ccccc1)c1ccccc1 (stereo not drawn) [Prenylamine]
developmental defects in the acute toxicity test (AB wildtype larvae): strong developmental defects
market withdrawal due to cardiovascular adverse effects ([1]; humans): withdrawn from the market

CC(C)(Sc1cc(C(C)(C)C)c(O)c(C(C)(C)C)c1)Sc1cc(C(C)(C)C)c(O)c(C(C)(C)C)c1 [Probucol]
arrhythmic phenotypes in hiPSC-CMs (Pluricyte hiPSC-CMs): does not show arrhythmic phenotypes
detection as cardiotoxic in hiPSC-CMs (hiPSC-CM positive) (Pluricyte hiPSC-CMs): failed to detect; also recorded: cannot detect
detection as cardiotoxic in zebrafish (zebrafish positive) (zebrafish larvae; in vivo): detection
effect on hERG activity (hERG): interfere with hERG activity

CC(C)NCC(O)COc1cccc2ccccc12 (stereo not drawn) [Propranolol]
heart rate (ventricular BPM) phenotype (zebrafish larvae; in vivo): bradycardia

CNCC(O)c1ccc(O)c(O)c1 (stereo not drawn) [Racepinephrine]
market withdrawal due to cardiovascular adverse effects ([1]; humans): withdrawn from the market
detection as cardiotoxic in zebrafish (zebrafish positive) (zebrafish larvae; in vivo): detection
heart rate (ventricular BPM) phenotype (zebrafish larvae; in vivo): tachycardia

CS(=O)(=O)c1ccc(C2=C(c3ccccc3)C(=O)OC2)cc1 [Rofecoxib]
detection as cardiotoxic in hiPSC-CMs (hiPSC-CM positive) (Pluricyte hiPSC-CMs): failed to detect; also recorded: did not even detect
cardiovascular clinical adverse effects ([1]; humans): heart attack and stroke
market withdrawal due to cardiovascular adverse effects ([1]; humans): withdrawn from the market due to cardiotoxicity concerns

CC(C)CC(N(C)C)C1(c2ccc(Cl)cc2)CCC1 (stereo not drawn) [Sibutramine]
detection as cardiotoxic in hiPSC-CMs (hiPSC-CM positive) (Pluricyte hiPSC-CMs): TP molecules for both models
time point of detection in hiPSC-CMs (Pluricyte hiPSC-CMs): detected only at T3; also recorded: only detected as cardiotoxic through the late assessment
cardiovascular clinical adverse effects ([1]; humans): promote cardiovascular clinical adverse effects through both the parent drug and metabolites
market withdrawal due to cardiovascular adverse effects ([1]; humans): withdrawn from the market due to cardiotoxicity concerns
detection as cardiotoxic in zebrafish (zebrafish positive) (zebrafish larvae; [2]): could detect all; also recorded: TP molecules for both models
